Patent US12295936B2, “Immunomodulating urea azalides” (Zoetis Services LLC, priority 2020, dated 2025)

System: BRD pathogens, M. haemolytica and P. multocida
Assay: MIC screening panel of BRD pathogens (antibacterial / non-antibacterial)
Conditions: Table J, Formula (1-A1b) compounds

| Compound | MIC ≤64 μg/mL for at least one of the bacterial strains (flag * at Ex #) |
| --- | --- |
| 1-((2S,3R,4S,6R)-2-(((2R,3S,4R,5R,8R,10R,11R,12S,13S,14R)-2-ethyl-3,4,10-trihydroxy-13-(((2R,4R,5S,6S)-5-hydroxy-4-methoxy-4,6-dimethyl-5-((4-(trifluoromethyl)piperazin-1-yl)methyl)tetrahydro-2H-pyran-2-yl)oxy)-3,5,8,10,12,14-hexamethyl-15-oxo-1-oxa-6-azacyclopentadecan-11-yl)oxy)-3-hydroxy-6-methyltetrahydro-2H-pyran-4-yl)-1,3-dimethyl-3-phenylurea [Example J-14] | J-14* (*MIC ≤64 μg/mL for at least one of the bacterial strains) |

Same assay, conditions: read-out: antibacterial / non-antibacterial (MIC for the BRD pathogens)

| Compound | MIC [µg/mL] |
| --- | --- |
| CC[C@H]1OC(=O)[C@H](C)[C@@H](O)[C@H](C)[C@@H](O[C@@H]2O[C@H](C)C[C@H](N(C)C(=O)Nc3ccccn3)[C@H]2O)[C@](C)(O)C[C@@H](C)CN[C@H](C)[C@@H](O)[C@]1(C)O [Example A-3, 1-((2S,3R,4S,6R)-2-(((2R,3S,4R,5R,8R,10R,11R,12S,13S,14R)-2-ethyl-3,4,10,13-tetrahydroxy-3,5,8,10,12,14-hexamethyl-15-oxo-1-oxa-6-azacyclopentadecan-11-yl)oxy)-3-hydroxy-6-methyltetrahydro-2H-pyran-4-yl)-1-methyl-3-(pyridin-2-yl)urea] | > 64 |
| CC[C@H]1OC(=O)[C@H](C)[C@@H](O[C@H]2C[C@@](C)(OC)[C@](O)(CN3CCC3)[C@H](C)O2)[C@H](C)[C@@H](O[C@@H]2O[C@H](C)C[C@H](N(C)C(=O)N(C)c3ccccc3)[C@H]2O)[C@](C)(O)C[C@@H](C)CN[C@H](C)[C@@H](O)[C@]1(C)O [Example J-22, 1-((2S,3R,4S,6R)-2-(((2R,3S,4R,5R,8R,10R,11R,12S,13S,14R)-13-(((2R,4R,5S,6S)-5-(azetidin-1-ylmethyl)-5-hydroxy-4-methoxy-4,6-dimethyltetrahydro-2H-pyran-2-yl)oxy)-2-ethyl-3,4,10-trihydroxy-3,5,8,10,12,14-hexamethyl-15-oxo-1-oxa-6-azacyclopentadecan-11-yl)oxy)-3-hydroxy-6-methyltetrahydro-2H-pyran-4-yl)-1,3-dimethyl-3-phenylurea] | > 64 |
| CC[C@H]1OC(=O)[C@H](C)[C@@H](O)[C@H](C)[C@@H](O[C@@H]2O[C@H](C)C[C@H](N(C)C(=O)Nc3cccc(OC)c3)[C@H]2O)[C@](C)(O)C[C@@H](C)CN[C@H](C)[C@@H](O)[C@]1(C)O [Example A-21, 1-((2S,3R,4S,6R)-2-(((2R,3S,4R,5R,8R,10R,11R,12S,13S,14R)-2-ethyl-3,4,10,13-tetrahydroxy-3,5,8,10,12,14-hexamethyl-15-oxo-1-oxa-6-azacyclopentadecan-11-yl)oxy)-3-hydroxy-6-methyltetrahydro-2H-pyran-4-yl)-3-(3-methoxyphenyl)-1-methylurea] | > 64 |
| CC[C@H]1OC(=O)[C@H](C)[C@@H](O[C@H]2C[C@@](C)(OC)[C@@H](O)[C@H](C)O2)[C@H](C)[C@@H](O[C@@H]2O[C@H](C)C[C@H](N(C)C(=O)NC3CCCCC3)[C@H]2O)[C@](C)(O)C[C@@H](C)CN(C)[C@H](C)[C@@H](O)[C@]1(C)O [Example B-10, 3-cyclohexyl-1-((2S,3R,4S,6R)-2-(((2R,3S,4R,5R,8R,10R,11R,12S,13S,14R)-2-ethyl-3,4,10-trihydroxy-13-(((2R,4R,5S,6S)-5-hydroxy-4-methoxy-4,6-dimethyltetrahydro-2H-pyran-2-yl)oxy)-3,5,6,8,10,12,14-heptamethyl-15-oxo-1-oxa-6-azacyclopentadecan-11-yl)oxy)-3-hydroxy-6-methyltetrahydro-2H-pyran-4-yl)-1-methylurea] | > 64 |
| CC[C@H]1OC(=O)[C@H](C)[C@@H](O[C@H]2C[C@@](C)(OC)[C@](O)(CNCCCn3ccccc3=O)[C@H](C)O2)[C@H](C)[C@@H](O[C@@H]2O[C@H](C)C[C@H](N(C)C(=O)N(C)c3ccccc3)[C@H]2O)[C@](C)(O)C[C@@H](C)CN[C@H](C)[C@@H](O)[C@]1(C)O [Example H-47, 1-((2S,3R,4S,6R)-2-(((2R,3S,4R,5R,8R,10R,11R,12S,13S,14R)-2-ethyl-3,4,10-trihydroxy-13-(((2R,4R,5S,6S)-5-hydroxy-4-methoxy-4,6-dimethyl-5-(((3-(2-oxopyridin-1(2H)-yl)propyl)amino)methyl)tetrahydro-2H-pyran-2-yl)oxy)-3,5,8,10,12,14-hexamethyl-15-oxo-1-oxa-6-azacyclopentadecan-11-yl)oxy)-3-hydroxy-6-methyltetrahydro-2H-pyran-4-yl)-1,3-dimethyl-3-phenylurea] | > 64 |
| CC[C@H]1OC(=O)[C@H](C)[C@@H](O[C@H]2C[C@@](C)(OC)[C@@H](O)[C@H](C)O2)[C@H](C)[C@@H](O[C@@H]2O[C@H](C)C[C@H](N(C)C(=O)Nc3ccc(C#N)cc3)[C@H]2O)[C@](C)(O)C[C@@H](C)CN(C)[C@H](C)[C@@H](O)[C@]1(C)O [Example B-12, 3-(4-cyanophenyl)-1-((2S,3R,4S,6R)-2-(((2R,3S,4R,5R,8R,10R,11R,12S,13S,14R)-2-ethyl-3,4,10-trihydroxy-13-(((2R,4R,5S,6S)-5-hydroxy-4-methoxy-4,6-dimethyltetrahydro-2H-pyran-2-yl)oxy)-3,5,6,8,10,12,14-heptamethyl-15-oxo-1-oxa-6-azacyclopentadecan-11-yl)oxy)-3-hydroxy-6-methyltetrahydro-2H-pyran-4-yl)-1-methylurea] | > 64 |
| CC[C@H]1OC(=O)[C@H](C)[C@@H](O[C@H]2C[C@@](C)(OC)[C@](O)(CNCCCN3CCCC3=O)[C@H](C)O2)[C@H](C)[C@@H](O[C@@H]2O[C@H](C)C[C@H](N(C)C(=O)N(C)c3ccccc3)[C@H]2O)[C@](C)(O)C[C@@H](C)CN[C@H](C)[C@@H](O)[C@]1(C)O [Example H-35, 1-((2S,3R,4S,6R)-2-(((2R,3S,4R,5R,8R,10R,11R,12S,13S,14R)-2-ethyl-3,4,10-trihydroxy-13-(((2R,4R,5S,6S)-5-hydroxy-4-methoxy-4,6-dimethyl-5-(((3-(2-oxopyrrolidin-1-yl)propyl)amino)methyl)tetrahydro-2H-pyran-2-yl)oxy)-3,5,8,10,12,14-hexamethyl-15-oxo-1-oxa-6-azacyclopentadecan-11-yl)oxy)-3-hydroxy-6-methyltetrahydro-2H-pyran-4-yl)-1,3-dimethyl-3-phenylurea] | > 64 |
| CC[C@H]1OC(=O)[C@H](C)[C@@H](O)[C@H](C)[C@@H](O[C@@H]2O[C@H](C)C[C@H](N(C)C(=O)Nc3cnccn3)[C@H]2O)[C@](C)(O)C[C@@H](C)CN[C@H](C)[C@@H](O)[C@]1(C)O [Example A-2, 1-((2S,3R,4S,6R)-2-(((2R,3S,4R,5R,8R,10R,11R,12S,13S,14R)-2-ethyl-3,4,10,13-tetrahydroxy-3,5,8,10,12,14-hexamethyl-15-oxo-1-oxa-6-azacyclopentadecan-11-yl)oxy)-3-hydroxy-6-methyltetrahydro-2H-pyran-4-yl)-1-methyl-3-(pyrazin-2-yl)urea] | > 64 |
| CC[C@H]1OC(=O)[C@H](C)[C@@H](O)[C@H](C)[C@@H](O[C@@H]2O[C@H](C)C[C@H](N(C)C(=O)Nc3ccccc3C(F)(F)F)[C@H]2O)[C@](C)(O)C[C@@H](C)CN[C@H](C)[C@@H](O)[C@]1(C)O [Example A-16, 1-((2S,3R,4S,6R)-2-(((2R,3S,4R,5R,8R,10R,11R,12S,13S,14R)-2-ethyl-3,4,10,13-tetrahydroxy-3,5,8,10,12,14-hexamethyl-15-oxo-1-oxa-6-azacyclopentadecan-11-yl)oxy)-3-hydroxy-6-methyltetrahydro-2H-pyran-4-yl)-1-methyl-3-(2-(trifluoromethyl)phenyl)urea] | > 64 |
| CC[C@H]1OC(=O)[C@H](C)[C@@H](O)[C@H](C)[C@@H](O[C@@H]2O[C@H](C)C[C@H](N(C)C(=O)Nc3ccc(C#N)cc3)[C@H]2O)[C@](C)(O)C[C@@H](C)CN[C@H](C)[C@@H](O)[C@]1(C)O [Example A-9, 3-(4-cyanophenyl)-1-((2S,3R,4S,6R)-2-(((2R,3S,4R,5R,8R,10R,11R,12S,13S,14R)-2-ethyl-3,4,10,13-tetrahydroxy-3,5,8,10,12,14-hexamethyl-15-oxo-1-oxa-6-azacyclopentadecan-11-yl)oxy)-3-hydroxy-6-methyltetrahydro-2H-pyran-4-yl)-1-methylurea] | > 64 |
| CC[C@H]1OC(=O)[C@H](C)[C@@H](O)[C@H](C)[C@@H](O[C@@H]2O[C@H](C)C[C@H](N(C)C(=O)Nc3cccc(C)c3)[C@H]2O)[C@](C)(O)C[C@@H](C)CN[C@H](C)[C@@H](O)[C@]1(C)O [Example A-25, 1-((2S,3R,4S,6R)-2-(((2R,3S,4R,5R,8R,10R,11R,12S,13S,14R)-2-ethyl-3,4,10,13-tetrahydroxy-3,5,8,10,12,14-hexamethyl-15-oxo-1-oxa-6-azacyclopentadecan-11-yl)oxy)-3-hydroxy-6-methyltetrahydro-2H-pyran-4-yl)-1-methyl-3-(m-tolyl)urea] | > 64 |
| CC[C@H]1OC(=O)[C@H](C)[C@@H](O[C@H]2C[C@@](C)(OC)[C@](O)(CNCCS(C)(=O)=O)[C@H](C)O2)[C@H](C)[C@@H](O[C@@H]2O[C@H](C)C[C@H](N(C)C(=O)N(C)c3ccccc3)[C@H]2O)[C@](C)(O)C[C@@H](C)CN[C@H](C)[C@@H](O)[C@]1(C)O [Example H-21, 1-((2S,3R,4S,6R)-2-(((2R,3S,4R,5R,8R,10R,11R,12S,13S,14R)-2-ethyl-3,4,10-trihydroxy-13-(((2R,4R,5S,6S)-5-hydroxy-4-methoxy-4,6-dimethyl-5-(((2-(methylsulfonyl)ethyl)amino)methyl)tetrahydro-2H-pyran-2-yl)oxy)-3,5,8,10,12,14-hexamethyl-15-oxo-1-oxa-6-azacyclopentadecan-11-yl)oxy)-3-hydroxy-6-methyltetrahydro-2H-pyran-4-yl)-1,3-dimethyl-3-phenylurea] | > 64 |
